Measured values published in patent US10046060B2, “Co-administration of an agent linked to an internalization peptide with an anti-inflammatory” (NoNO Inc., priority 2007, dated 2018).
Ends that are not written are not given here.

Assays:
[1] = tested on: humans; assay: Safety, Tolerability and Pharmacokinetic Study in humans: blood histamine; assay type: in vivo, human
Protocol: We carried out a Safety, Tolerability and Pharmacokinetic Study of Tat-NR2B9c in humans. Subjects were either normal, healthy, non-smoking males or post-menopausal or surgically sterile female subjects with a minimum age of 18 years. The subjects were either administered Tat-NR2B9c, Lot #: 124-134-001B, or were given placebo (Phosphate Buffered Saline), Lot #: 124-134-001A, administered as an intravenous infusion (10±1 minutes). Four subjects were dosed in each of Cohorts 1 to 3, and 10 subjects were dosed in each of Cohorts 4 to 8. All 62 subjects completed the study. Treatment periods for each cohort were as follows: Cohort 1: Sep. 14, 2006; Cohort 2: Sep. 26, 2006; Cohort 3: Oct. 6, 2006; Cohort 4: Oct. 20, 2006; Cohort 5: Nov. 6, 2006; Cohort 6: Dec. 4, 2006; Cohort 7: Dec. 17, 2006; Cohort 8: Feb. 25, 2007.
During the study period, 11 blood samples were collected for pharmacokinetic analysis from each subject at the following timepoints: 0.00 (pre-dose), 0.08 (5 minutes), 0.17 to 0.25 (10 to 15 minutes, precisely at the end of each individual drug infusion), 0.33 (20 minutes), 0.50, 0.75, 1.00, 2.00, 6.00, 12.00, and 24.00 hours post-dose. In addition, 8 blood samples were collected for histamine analysis from each subject at the following timepoints: 0.00 (pre-dose), and at 0.08 (5 minutes), 0.17 (10 minutes), 0.25, 0.50, 1.00, 2.00, and 24.00 hours post-dose.

[2] = tested on: Beagle dogs; assay: GLP 14-day intravenous toxicity study (CRM Study No. 501448): clinical signs and plasma histamine; assay type: in vivo, dog
Protocol: Blood samples (approximately 1 mL) were collected from all animals on Days 1, 6 and 12 at predose, 5 and 15 minutes post injection. Blood samples were collected by venipuncture (jugular, saphenous and cephalic) into tubes containing EDTA. The samples were then centrifuged (within 30 minutes of collection) in a refrigerated centrifuge (ca. 4° C.) at 2700 rpm for 10 minutes. Plasma were separated into a second tube with the appropriate label and stored at −80° C. until analysis at CRM. Plasma samples were used for investigating histamine levels. Samples from animals dosed intravenously with Tat-NR2B9c were analyzed using a validated method.

Sequence: YGRKKRRQRRRKLSSIESDV [Tat-NR2B9c]
- Number of Subjects with Histamine levels >10 nmol/L ([1]; NA-1 0.75 mg/kg (n = 8), Day 1, 0.17 hr): 0
- Number of Subjects with Histamine levels >10 nmol/L ([1]; NA-1 0.75 mg/kg (n = 8), Day 1, 0.25 hr): 0
- Number of Subjects with Histamine levels >10 nmol/L ([1]; NA-1 0.75 mg/kg (n = 8), Day 1, 0.50 hr): 0
- Number of Subjects with Histamine levels >10 nmol/L ([1]; NA-1 0.75 mg/kg (n = 8), Day 1, 1.00 hr): 0
- Number of Subjects with Histamine levels >10 nmol/L ([1]; NA-1 0.75 mg/kg (n = 8), Day 1, 2.00 hr): 0
- Number of Subjects with Histamine levels >10 nmol/L ([1]; NA-1 0.75 mg/kg (n = 8), Day 1, 24.00 hr): 0
- Number of Subjects with Histamine levels >10 nmol/L ([1]; NA-1 0.75 mg/kg (n = 8), Day 7): 0
- Number of Subjects with Histamine levels >10 nmol/L ([1]; NA-1 0.75 mg/kg (n = 8), Day 14): 0
- Number of Subjects with Histamine levels >10 nmol/L ([1]; NA-1 0.75 mg/kg (n = 8), Day 28 End-of-study): 0
- Number of Subjects with Histamine levels >10 nmol/L ([1]; NA-1 0.75 mg/kg (n = 8), Screening): 0
- Number of Subjects with Histamine levels >10 nmol/L ([1]; NA-1 1.50 mg/kg (n = 8), Day 1, 0.00 hr): 0
- Number of Subjects with Histamine levels >10 nmol/L ([1]; NA-1 1.50 mg/kg (n = 8), Day 1, 0.08 hr): 0
- Number of Subjects with Histamine levels >10 nmol/L ([1]; NA-1 1.50 mg/kg (n = 8), Day 1, 0.17 hr): 0
- Number of Subjects with Histamine levels >10 nmol/L ([1]; NA-1 1.50 mg/kg (n = 8), Day 1, 0.25 hr): 0
- Number of Subjects with Histamine levels >10 nmol/L ([1]; NA-1 1.50 mg/kg (n = 8), Day 1, 0.50 hr): 0
- Number of Subjects with Histamine levels >10 nmol/L ([1]; NA-1 1.50 mg/kg (n = 8), Day 1, 1.00 hr): 0
- Number of Subjects with Histamine levels >10 nmol/L ([1]; NA-1 1.50 mg/kg (n = 8), Day 1, 2.00 hr): 0
- Number of Subjects with Histamine levels >10 nmol/L ([1]; NA-1 1.50 mg/kg (n = 8), Day 1, 24.00 hr): 0
- Number of Subjects with Histamine levels >10 nmol/L ([1]; NA-1 1.50 mg/kg (n = 8), Day 7): 0
- Number of Subjects with Histamine levels >10 nmol/L ([1]; NA-1 1.50 mg/kg (n = 8), Day 14): 0
- Number of Subjects with Histamine levels >10 nmol/L ([1]; NA-1 1.50 mg/kg (n = 8), Day 28 End-of-study): 0
- Number of Subjects with Histamine levels >10 nmol/L ([1]; NA-1 1.50 mg/kg (n = 8), Screening): 0
- Number of Subjects with Histamine levels >10 nmol/L ([1]; NA-1 2.60 mg/kg (n = 8), Day 1, 0.00 hr): 0
- Number of Subjects with Histamine levels >10 nmol/L ([1]; NA-1 2.60 mg/kg (n = 8), Day 1, 0.08 hr): 0
- Number of Subjects with Histamine levels >10 nmol/L ([1]; NA-1 2.60 mg/kg (n = 8), Day 1, 0.17 hr): 0
- Number of Subjects with Histamine levels >10 nmol/L ([1]; NA-1 2.60 mg/kg (n = 8), Day 1, 0.25 hr): 0
- Number of Subjects with Histamine levels >10 nmol/L ([1]; NA-1 2.60 mg/kg (n = 8), Day 1, 0.50 hr): 0
- Number of Subjects with Histamine levels >10 nmol/L ([1]; NA-1 2.60 mg/kg (n = 8), Day 1, 1.00 hr): 0
- Number of Subjects with Histamine levels >10 nmol/L ([1]; NA-1 2.60 mg/kg (n = 8), Day 1, 2.00 hr): 0
- Number of Subjects with Histamine levels >10 nmol/L ([1]; NA-1 2.60 mg/kg (n = 8), Day 1, 24.00 hr): 0
- Number of Subjects with Histamine levels >10 nmol/L ([1]; NA-1 2.60 mg/kg (n = 8), Day 7): 0
- Number of Subjects with Histamine levels >10 nmol/L ([1]; NA-1 2.60 mg/kg (n = 8), Day 14): 0
- Number of Subjects with Histamine levels >10 nmol/L ([1]; NA-1 2.60 mg/kg (n = 8), Day 28 End-of-study): 0
- Number of Subjects with Histamine levels >10 nmol/L ([1]; NA-1 2.60 mg/kg (n = 8), Screening): 0
- Number of Subjects with Histamine levels >10 nmol/L ([1]; NA-1 3.75 mg/kg (n = 8), Day 1, 0.00 hr): 0
- Number of Subjects with Histamine levels >10 nmol/L ([1]; NA-1 3.75 mg/kg (n = 8), Day 1, 0.08 hr): 0
- Number of Subjects with Histamine levels >10 nmol/L ([1]; NA-1 3.75 mg/kg (n = 8), Day 1, 0.17 hr (10 minutes)): 7 of the 8
- Number of Subjects with Histamine levels >10 nmol/L ([1]; NA-1 3.75 mg/kg (n = 8), Day 1, 0.17 hr (10 minutes), listed as NA 1, 3.75 mg/kg): Seven of 8
- Number of Subjects with Histamine levels >10 nmol/L ([1]; NA-1 3.75 mg/kg (n = 8), Day 1, 0.17 hr (10 minutes), listed as NA-1, 3.75 mg/kg): 7
- Number of Subjects with Histamine levels >10 nmol/L ([1]; NA-1 3.75 mg/kg (n = 8), Day 1, 0.25 hr (15 minutes)): 3
- Number of Subjects with Histamine levels >10 nmol/L ([1]; NA-1 3.75 mg/kg (n = 8), Day 1, 0.50 hr): 0
- Number of Subjects with Histamine levels >10 nmol/L ([1]; NA-1 3.75 mg/kg (n = 8), Day 1, 1.00 hr): 0
- Number of Subjects with Histamine levels >10 nmol/L ([1]; NA-1 3.75 mg/kg (n = 8), Day 1, 2.00 hr): 0
- Number of Subjects with Histamine levels >10 nmol/L ([1]; NA-1 3.75 mg/kg (n = 8), Day 1, 24.00 hr): 0
- Number of Subjects with Histamine levels >10 nmol/L ([1]; NA-1 3.75 mg/kg (n = 8), Day 7): 0
- Number of Subjects with Histamine levels >10 nmol/L ([1]; NA-1 3.75 mg/kg (n = 8), Day 14): 0
- Number of Subjects with Histamine levels >10 nmol/L ([1]; NA-1 3.75 mg/kg (n = 8), Day 28 End-of-study): 0
- Number of Subjects with Histamine levels >10 nmol/L ([1]; NA-1 3.75 mg/kg (n = 8), Screening): 0
- Time for abnormal histamine results to return to the normal range ([1]; after drug administration): ≤ 24.00 h
- Abnormal histamine levels in other dose groups ([1]; dose groups other than 3.75 mg/kg): no treatment group had significant abnormal levels of histamine
- Lethargy and unpalpable pulse as characterized by attending veterinarian ([2]; 10 mg/kg daily i.v.): severe hypotensive reaction
- Clinical signs ([2]; 10 mg/kg daily i.v., 14 days, all animals): treatment-related clinical signs
- Change of histamine levels during 14-day repeated dosing ([2]; any dose level): no consistent increase in histamine levels
- Plasma histamine levels ([2]; immediately following the first administration, naive dogs): increased histamine levels
